Patent US20260284016A1, “COMBINATIONS AND METHODS FOR ENHANCING CHECKPOINT INHIBITOR THERAPIES IN CANCER TREATMENT” (PURDUE RESEARCH FOUNDATION, priority 2004, published 2026)

Experiments:
[1] = Stability during incubation in culture media; type: physicochemical; conditions: 37° C. in the culture media, 48 hours
Procedure: Indeed, Compound 1B retained the original structure after 48 hours incubation.

BM-induced mice = test system: BM-induced mice
Procedure: Studies were also performed to determine if macrophages in pulmonary fibrotic lungs might be specifically targeted with folate-linked drugs in vivo. […] (The BM model is widely regarded to be helpful in terms of enabling mechanistic investigations relevant to fibrogenesis in an in vivo context.)
More specifically, eight-week-old C57BL6 male mice from Charles River (average weight 22 g to 25 g) were housed under pathogen-free conditions at room temperature (22° C.) under a 12 hours light-dark cycle. Mice were placed on a folate deficient chow (Envigo Teklad Global Rat Food Pellets) for 1 week prior to the BM or PBS instillation. Fresh water and folate-deficient diet were freely available. All animal procedures were approved by the Purdue Animal Care and Use Committee in accordance with National Institute of Health guidelines.
Thereafter, the mice were anesthetized with ketamine/xylazine and the necks of the mice were shaved using hair remover lotion and then sterilized with 70% alcohol. A small incision was made on the neck to visualize the trachea. Mice were positioned at a 75-degree angle and injected intratracheally with 100 μL sterile PBS or BM (Cayman Chemicals, Ann Arbor, MI; #13877) dissolved in PBS (0.75 mg/kg) using a 1 cc syringe with 26 G needle. Body weights were monitored every other day throughout the experiment.
Lobes of the right lung collected above were weighed, placed in a pressure-tight vial (Supelco Inc., Bellefonte, PA; #27003), and hydrolyzed with 6N HCl (10 ml/g, v/w) in a sand bath at 120° C., for 3.5 hours. The hydrolyzed solution was cooled at 4° C., for 15 min and transferred to a 1.5 ml Eppendorf tube prior to centrifugation at 12,000 rcf for 15 min at 4° C. Supernatant was carefully collected, aliquoted and used for hydroxyproline (HYP) analysis.
For the subsequent HYP analysis, 10 μl of sample was transferred into a 96-well plate and neutralized with 10 μl of 5.3 M sodium hydroxide solution. Isopropanol ([…]) was then added to each well followed by 20 μl of oxidation buffer and the mixture was incubated on a shaker at room temperature for 5 min. Analytical reagent (260 μl) was added, and the plate was incubated on a shaker at room temperature for 30 seconds and incubated immediately at 60° C., for 25 min. The absorbance was measured at 560 nm (A560) within 15 min. All reagents were prepared according to a previously reported protocol.
For histological analysis of the lung sections, fixed lungs (see above) were embedded in paraffin, sectioned and stained with hematoxylin-eosin (H&E), Masson's trichrome or F3 (anti-mouse FRβ antibody). Tissue sections were examined in a blinded manner by a licensed pathologist. More than 90×10^6 cells were quantified per section using Aperio-Image Scope (Leica Biosystems, Wetzlar, DE).
For this, BM-treated mice were intravenously injected every other day beginning on day 10 with either vehicle (3% DMSO in PBS) or Compound 1B (see FIG. 8A). […] In BM-induced experimental pulmonary fibrosis in mice, inflammation is known to persist for about 9-10 days after BM installation. Because, inflammation to fibrosis switch happens in this model approximately day 9 to day 14, and anti-inflammatory markers start appearing at about day 10, dosing began on day 10 (FIG. 8A).
Two doses were given every other day till day 21. The individual doses on a day are separated by 6 hours to prevent any “tolerance” to TLR agonists. Mice were then sacrificed on day 21 and subjected immediately to bronchoalveolar lavage followed by resection of the lungs for immunohistochemistry and quantitation of collagen and hydroxyproline.

[2] = test system: M2-induced human monocyte-derived macrophages; test: Reprogramming of M2-induced human monocyte-derived macrophages with FA-glucosamine competition; type: cell-based; conditions: 100 nM, 2+46 hours
Procedure: Arg1 (FIG. 19A), CD206 (FIG. 19B) and CD163 (FIG. 19C), and protein levels of secreted anti-inflammatory CCL18 (FIG. 19D) and proinflammatory cytokines, CXCL10 (FIG. 19E) and IL-6 (FIG. 19F) (n=3, technical replicates) were then determined. Changes in both sets of cytokines were inhibited by blockade of unoccupied folate receptors with excess FA-glucosamine (2+46 hours, competition).

For `CCCCc1nc2c(N)nc3ccccc3c2n1CC(C)(C)OC(=O)OCCSSCC(NC(=O)CCC(NC(=O)c1ccc(NCc2cnc3nc(N)[nH]c(=O)c3n2)cc1)C(=O)O)C(=O)O` (centres unmarked) [Compound 1B], the stability during incubation [1] was “remained stable”, the “order of efficacy on lung hydroxyproline content” value (BM-induced mice; 0, 1, 3, or 10 nmol/mouse, day 21) was 10 nmol/mouse>3 nmol/mouse>1 nmol/mouse>0 nmol/mouse and the “lung histology with rising dose” value (BM-induced mice; 0, 1, 3, or 10 nmoles) was “lung histology improved”. The “weight loss across doses” value (BM-induced mice; 0, 1, 3, or 10 nmoles every other day from day 10) was “no difference in weight loss”, the “response in lung sections (DAPI, anti-F4/80, anti-CD206 staining)” value (BM-induced mice; healthy and fibrotic lungs) was “robust anti-fibrotic and proinflammatory response” and the “collagen stain, Masson's trichrome” value (BM-induced mice; tail vein injection, treatment from day 10) was “strongly suppressed”. For the same compound, the “lung architecture, H&E staining” value (BM-induced mice; treatment from day 10) was “resembles that of healthy mice” and the “downregulation of biomarkers with excess FA-glucosamine (competitor)” value [2] was “blocked”.
